Experimental data taken from patent US4055639A, “Derivatives of N-(2,2-dichlorovinyl) salicylamide and use thereof as bactericides, fungicides and algicides for industry” (Nippon Kayaku Kabushiki Kaisha, priority 1975, dated 1977).
≈ marks a conversion by molar mass, not a printed value. Where a name gives a salt, the structure may show the parent alone. Read-outs that look alike come from different tables or passages of the source.

Assays:
fungi = test: degree of propagation on slime test boards in Waxman's liquid medium; design: key: -: no propagation; +: the area of propagation is 1-25% on the slime test boards.; ++: the area of propagation is 26-50% on the slime test boards.; +++: the area of propagation is 51-75% on the slime test boards.; ++++: the area of propagation is 76-100% on the slime test boards; conditions: 0.02 part active compound (10% water soluble concentrate) in 100 parts medium, same method
Protocol: (§1) Zero point zero two (0.02) part of active compounds in the form of 10% water soluble concentrate which was prepared by Example 11 was added into 100 parts of Waxman's liquid medium. Pieces of wood and iron (hereafter referred to as the slime test boards) were soaked into the Waxman's liquid medium. The bacteria which were gathered from circular water system were inoculated upon the Waxman's liquid medim and incubated at 27°-34° C by shaking culture for 2 days. The degree of propagation of the bacteria on the slime test boards was examined.
(§2) The growth-inhibiting activity of active compounds against the fungi and the green algae was also examined by the same method as mentioned above.
(§3) The degree of propagation of the bacteria, fungi or green algae on the slime test boards is difined in term of the following symbols.

green algae = test: as above; design: key: -: no propagation; +: the area of propagation is 1-25% on the slime test boards.; ++: the area of propagation is 26-50% on the slime test boards.; +++: the area of propagation is 51-75% on the slime test boards.; ++++: the area of propagation is 76-100% on the slime test boards; conditions: 0.02 part active compound (10% water soluble concentrate) in 100 parts medium, same method
Protocol: as §1, §2, §3

Penicillium citrinum = test: minimum inhibitory concentration, potato-dextrose agar dilution method; type: cell-based; conditions: read-out: Minimum inhibitory amount (minimum inhibitory concentration, 100% control)
Text: (§4) Bactericidal activity and fungicidal activity of the active compounds of the present invention were examined by potato-dextrose agar dilution method, or [2] glucose bouillon medium dilution method. The results are shown in Table 2 below as the minimum inhibitory concentration (the minimum concentration of active compound found to produce 100% control of the test bacteria and fungi).

Aspergillus niger = test: as above; type: cell-based; conditions: read-out: Minimum inhibitory amount (minimum inhibitory concentration, 100% control)
Text: as §4

Cladosporium harbarum = test: as above; type: cell-based; conditions: read-out: Minimum inhibitory amount (minimum inhibitory concentration, 100% control)
Text: as §4

Staphylococcus aureus = test: minimum inhibitory concentration, glucose bouillon medium dilution method; type: cell-based; conditions: read-out: Minimum inhibitory amount (minimum inhibitory concentration, 100% control)
Text: as §4

Bacillus subtilis = test: as above; type: cell-based; conditions: read-out: Minimum inhibitory amount (minimum inhibitory concentration, 100% control)
Text: as §4

Escherichia coli = test: as above; type: cell-based; conditions: read-out: Minimum inhibitory amount (minimum inhibitory concentration, 100% control)
Text: as §4

[1] = test system: Bacteria, fungi and slime; test: inhibition of bacteria, fungi and slime by water soluble concentrate in circular water systems, pastes or binding agents; conditions: 10-20 ppm in circular water systems; 0.01-0.1% in pastes or binding agents
Protocol: A water soluble concentrate was prepared as follows:
The above ingredients were mixed. A water soluble concentrate was obtained. A water soluble concentrate containing Compound No. 1, No. 2, No. 5, No. 8, No. 16, No. 19 or No. 22 was prepared by the same method as mentioned above.
Before application, the concentrate was diluted 500-1000 times with water and sprayed on the inside of cotes to prevent the growth of bacteria and fungi.
The solution was added to water in circular water systems to inhibit the growth of slime. The concentration of Compound No. 6 in the water was 10-20 ppm.
An amount of 0.01-0.1% of Compound No. 6 as the solution was added to pastes or binding agents to prevent rottenness of them.

[2] = Method (1) potato-dextrose agar dilution
[3] = Cladosporium harbarum, Method (1) potato-dextrose agar dilution
[4] = Method (2) glucose bouillon medium dilution

Row | SMILES | Degree of propagation (fungi) | Degree of propagation (green algae) | MIC (Penicillium citrinum; [2]) [µg/mL] | MIC (Aspergillus niger; [2]) [µg/mL] | MIC (Cladosporium harbarum; [3]) [µg/mL] | MIC (Staphylococcus aureus; [4]) [µg/mL] | MIC (Bacillus subtilis; [4]) [µg/mL] | MIC (Escherichia coli; [4]) [µg/mL] | MIC (Penicillium citrinum) [µg/mL] | MIC (Aspergillus niger) [µg/mL] | MIC (Cladosporium harbarum; Cladosporium) [µg/mL] | MIC (Staphylococcus aureus) [µg/mL] | MIC (Bacillus subtilis) [µg/mL] | MIC (Escherichia coli) [µg/mL] | inhibition of bacteria, fungi and slime [1]
1 | O=C(NC=C(Cl)Cl)c1cc(Cl)ccc1O [Compound No. 1, N-(2',2'-dichlorovinyl)-5-chlorosalicylamide] | - | - | 10 (≈ 37.5 µM) | 10 (≈ 37.5 µM) | 5 (≈ 18.8 µM) | 5 (≈ 18.8 µM) | 5 (≈ 18.8 µM) | 60 (≈ 225 µM) |  |  |  |  |  |  | 
2 | CC(=O)Oc1ccccc1C(=O)NC=C(Cl)Cl [Compound No. 2, O-acetyl-N-(2,2-dichlorovinyl) salicylamide] | - | - | 10 (≈ 36.5 µM) | 10 (≈ 36.5 µM) | 5 (≈ 18.2 µM) | 5 (≈ 18.2 µM) | 2.5 (≈ 9.12 µM) | 40 (≈ 146 µM) |  |  |  |  |  |  | 
3 | COC(=O)Oc1ccccc1C(=O)NC=C(Cl)Cl [Compound No. 3, O-methoxycarbonyl-N-(2,2-dichlorovinyl) salicylamide] |  |  | 20 (≈ 68.9 µM) | 10 (≈ 34.5 µM) | 10 (≈ 34.5 µM) | 10 (≈ 34.5 µM) | 10 (≈ 34.5 µM) | 60 (≈ 207 µM) |  |  |  |  |  |  | 
4 | CNC(=O)Oc1ccccc1C(=O)NC=C(Cl)Cl [Compound No. 4, O-(N'-methylcarbamoyl)-N-(2,2-dichlorovinyl) salicylamide] |  |  |  |  |  |  |  |  | 10 (≈ 34.6 µM) | 20 (≈ 69.2 µM) | 5 (≈ 17.3 µM) | 10 (≈ 34.6 µM) | 10 (≈ 34.6 µM) | 60 (≈ 208 µM) | 
5 | CC(=O)Oc1ccc(Cl)cc1C(=O)NC=C(Cl)Cl [Compound No. 5, O-acetyl-N-(2',2'-dichlorovinyl)-5-chlorosalicylamide] | - | - | 2.5 (≈ 8.1 µM) | 2.5 (≈ 8.1 µM) | 2.5 (≈ 8.1 µM) | 1.3 (≈ 4.21 µM) | 1.3 (≈ 4.21 µM) | 10 (≈ 32.4 µM) |  |  |  |  |  |  | 
6 | O=C(NC=C(Cl)Cl)c1cc(Cl)ccc1O [Compound No. 6, sodium salt of N-(2',2'-dichlorovinyl)-5-chlorosalicylamide] |  |  |  |  |  |  |  |  |  |  |  |  |  |  | inhibited for a long time
7 | CCC(=O)Oc1ccccc1C(=O)NC=C(Cl)Cl [Compound No. 15] | - | - | 10 (≈ 34.7 µM) | 10 (≈ 34.7 µM) | 5 (≈ 17.4 µM) | 5 (≈ 17.4 µM) | 2.5 (≈ 8.68 µM) | 40 (≈ 139 µM) |  |  |  |  |  |  | 
8 | Cc1cccc(C(=O)NC=C(Cl)Cl)c1O [compound 12] |  |  | 20 (≈ 81.3 µM) | 20 (≈ 81.3 µM) | 20 (≈ 81.3 µM) | 10 (≈ 40.6 µM) | 10 (≈ 40.6 µM) | 80 (≈ 325 µM) |  |  |  |  |  |  | 
9 | O=C(NC=C(Cl)Cl)c1cc(Br)ccc1O [compound 13] |  |  | 10 (≈ 32.2 µM) | 20 (≈ 64.3 µM) | 10 (≈ 32.2 µM) | 5 (≈ 16.1 µM) | 5 (≈ 16.1 µM) | 60 (≈ 193 µM) |  |  |  |  |  |  | 
10 | O=C(NC=C(Cl)Cl)c1cccc([N+](=O)[O-])c1O [compound 14] |  |  | 10 (≈ 36.1 µM) | 10 (≈ 36.1 µM) | 10 (≈ 36.1 µM) | 5 (≈ 18 µM) | 5 (≈ 18 µM) | 60 (≈ 217 µM) |  |  |  |  |  |  | 
11 | CCCC(=O)Oc1ccccc1C(=O)NC=C(Cl)Cl [compound 16] | - |  | 10 (≈ 33.1 µM) | 10 (≈ 33.1 µM) | 5 (≈ 16.5 µM) | 10 (≈ 33.1 µM) | 5 (≈ 16.5 µM) | 60 (≈ 199 µM) |  |  |  |  |  |  | 
12 | CC(C)C(=O)Oc1ccccc1C(=O)NC=C(Cl)Cl [compound 17] |  |  | 10 (≈ 33.1 µM) | 10 (≈ 33.1 µM) | 10 (≈ 33.1 µM) | 5 (≈ 16.5 µM) | 5 (≈ 16.5 µM) | 40 (≈ 132 µM) |  |  |  |  |  |  | 
13 | O=C(CCl)Oc1ccccc1C(=O)NC=C(Cl)Cl [compound 19] | - | - | 10 (≈ 32.4 µM) | 10 (≈ 32.4 µM) | 5 (≈ 16.2 µM) | 5 (≈ 16.2 µM) | 5 (≈ 16.2 µM) | 40 (≈ 130 µM) |  |  |  |  |  |  | 
14 | O=C(NC=C(Cl)Cl)c1ccccc1OC(=O)C(Cl)Cl [compound 20] |  |  | 10 (≈ 29.2 µM) | 10 (≈ 29.2 µM) | 10 (≈ 29.2 µM) | 10 (≈ 29.2 µM) | 5 (≈ 14.6 µM) | 60 (≈ 175 µM) |  |  |  |  |  |  | 
15 | CCOC(=O)Oc1ccccc1C(=O)NC=C(Cl)Cl [compound 22] | + (the area of propagation is 1-25% on the slime test boards.) |  | 10 (≈ 32.9 µM) | 10 (≈ 32.9 µM) | 10 (≈ 32.9 µM) | 2.5 (≈ 8.22 µM) | 5 (≈ 16.4 µM) | 40 (≈ 132 µM) |  |  |  |  |  |  | 
16 | CC(C)COC(=O)Oc1ccccc1C(=O)NC=C(Cl)Cl [compound 23] |  |  | 10 (≈ 30.1 µM) | 10 (≈ 30.1 µM) | 10 (≈ 30.1 µM) | 5 (≈ 15.1 µM) | 5 (≈ 15.1 µM) | 40 (≈ 120 µM) |  |  |  |  |  |  | 
17 | COc1ccccc1C(=O)NC=C(Cl)Cl [compound 24] |  |  | 20 (≈ 81.3 µM) | 20 (≈ 81.3 µM) | 10 (≈ 40.6 µM) | 10 (≈ 40.6 µM) | 10 (≈ 40.6 µM) | 60 (≈ 244 µM) |  |  |  |  |  |  | 
18 | O=C(NC=C(Cl)Cl)c1cc(Cl)cc(Cl)c1O [compound 26] |  |  | 10 (≈ 33.2 µM) | 10 (≈ 33.2 µM) | 5 (≈ 16.6 µM) | 5 (≈ 16.6 µM) | 5 (≈ 16.6 µM) | 40 (≈ 133 µM) |  |  |  |  |  |  | 
19 | CC(=O)Oc1c(Cl)cc(Cl)cc1C(=O)NC=C(Cl)Cl [compound 27] |  |  | 5 (≈ 14.6 µM) | 10 (≈ 29.2 µM) | 5 (≈ 14.6 µM) | 2.5 (≈ 7.29 µM) | 2.5 (≈ 7.29 µM) | 40 (≈ 117 µM) |  |  |  |  |  |  | 
